Like-named read-outs stand apart in the source and are kept apart here.
Experiments:
POSH = target: T1, POSH (Homo sapiens, UniProt Q7Z6J0); experiment: Selectivity (% A in 1 μM), ubiquitin ligase activity of POSH; type: biochemical; conditions: read-out: Selectivity (% A* in 1 μM) POSH
T1 construct: GST-POSH lot NB81/p.118 3.6 mg/ml; fused on or other part: GST tag, used for detection with anti-GST XL665
T1 sequence (Q7Z6J0 1-269 limits assumed): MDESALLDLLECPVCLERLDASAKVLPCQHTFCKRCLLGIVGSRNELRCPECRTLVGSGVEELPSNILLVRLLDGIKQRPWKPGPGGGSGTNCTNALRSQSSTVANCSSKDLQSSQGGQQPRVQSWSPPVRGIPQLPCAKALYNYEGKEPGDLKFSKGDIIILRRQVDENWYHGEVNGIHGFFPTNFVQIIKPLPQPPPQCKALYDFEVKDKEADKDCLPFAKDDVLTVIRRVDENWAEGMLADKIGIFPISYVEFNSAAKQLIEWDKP
In short: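 GST-POSH at 33 nM was preincubated 30 min at RT with compounds (1 mM stocks in DMSO, 5 μl into 100 μl) before addition to the E1/E2 enzyme mix. Dose-response runs used 44 nM to 4.44 μM compound in triplicate, with DMSO-only and no-E3 controls.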

HIV-1 = experiment: HIV maturation (budding) in virus-like particle assay, HIV-1 p24 antigen ELISA; type: cell-based; conditions: Human immunodeficiency virus 1, read-out: Budding (3 μM)
From the text: Compounds were further assessed for effects on maturation of HIV particles in a virus-like particle assay.

E2 protein = type: biochemical; conditions: % activity at 1 μM compound; control is related to 100% activity; HTS protocol
c-cbl = c-cbl (Homo sapiens, UniProt P22681); experiment: Selectivity (% A in 1 μM), ubiquitin ligase activity of c-cbl; type: biochemical; conditions: % activity at 1 μM compound; control is related to 100% activity; HTS protocol
[1] = % activity at 1 μM compound, control is related to 100% activity, HTS protocol

Row | SMILES | remaining activity at 1 µM (POSH) | activity at 3 µM (HIV-1) | remaining activity at 1 µM (POSH; [1]) | Selectivity (% A* in 1 μM) E2 (E2 protein) | remaining activity at 1 µM (c-cbl)
1 | O=C(Nc1cccc2c(NC(=O)C3C4CCCCC43)cccc12)C1C2CCCCC21 (stereo not shown) [Compound 97] | 13% | 64% |  |  | 
2 | COc1cc(C2Nc3ccccc3NC3=C2C(=O)CC(C)(C)C3)cc(Br)c1O (stereo not shown) [Compound 102] |  |  | 52% | 99% | 111%
3 | Cc1cc(O)c(C(=O)/C=C/c2cccc(I)c2)c(=O)o1 [Compound 87] | 33% | 29% |  |  | 
4 | COc1ccc(Nc2ccc(O)c3c2C(=O)c2ccccc2C3=O)cc1 [Compound 100] |  |  | 99% | 59% | 100%
5 | Cc1ccc(C(=O)NN=C2CCC(=NNC(=O)c3ccc(C)cc3)CC2)cc1 [Compound 93] |  |  | 21% | 78% | 84%
6 | COC(=O)C1=C(C(=O)OC)SC(=C2C(=S)C(C)(C)N(C(C)=O)c3cc(C)ccc32)S1 [Compound 99] |  |  | 36% | 89% | 88%
7 | Cc1[nH]c(=O)c(C(=O)/C=C/c2ccccc2F)c2c1CCCC2 [Compound 95] |  |  | 12% | 100% | 136%
8 | O=C(NCc1ccc(Cl)cc1)C(=O)Nc1ccccc1 [Compound 104] |  |  | 111% | 113% | 140%
9 | O=C(Cc1ccccc1)N1N=CCC1(O)c1ccc(F)cc1 (stereo not shown) [Compound 94] |  |  | 71% | 49% | 106%
10 | COc1ccc(C(=O)CC2=C(O)C(=O)c3ccccc3C2=O)cc1 [Compound 89] |  |  | 45% | 70% | 109%
11 | O=C(NC(C(Cl)(Cl)Cl)S(=O)(=O)c1ccccc1)c1ccc(Cl)cc1Cl (stereo not shown) [Compound 88] | 172% | 57% |  |  | 
12 | O=C(/C=C/c1cccnc1)c1ccc(C(=O)/C=C/c2cccnc2)cc1 [Compound 92] |  |  | 21% | 125% | 111%
13 | O=c1oc2ccccc2c(O)c1C(=S)Nc1ccccc1 [Compound 96] | 105% | 56% |  |  | 
14 | O=C(O)COc1ccc2c(c1)oc(=O)c1ccccc12 [Compound 85] | 26% | 59% |  |  | 
15 | Cc1cc(OC(=O)Cn2c(=O)sc3ccccc32)ccc1Cl [Compound 103] | 102% | 69% |  |  | 
16 | O=C1c2ccccc2-c2nc3nonc3nc21 [Compound 91] | 11% | 33% |  |  | 
17 | O=C1NC(=O)N(c2ccccc2)C(=O)/C1=C\c1ccc2c(c1)OCO2 [Compound 4] |  |  | 48% |  | 
18 | CN(C)c1ccc(/C=C2/C(=O)NC(=O)N(C3CCCCC3)C2=O)cc1 [Compound 3] |  |  | 47% |  | 

Source: patent US7659277B2, “Ubiquitin ligase inhibitors and methods related thereto” (Proteologies, Ltd., priority 2003, dated 2010)
